Test systems include CAKI-1 renal; DMS 114 small cell lung; DMS 273 small cell lung; HCC-2998 colon; LXFL 529 NSCLC; M19-MEL melanoma; OVCAR-3 ovarian; RXF-631 renal; SNB-78 CNS; XF 498 CNS; DLD-1 colon; HOP-18 NSCLC; KM20L2 colon; BT-549 breast; MDA-MB-231 breast.
Common to all, as to test: growth of human tumour cells (NCI), 48 h

SMILES strings stand for the structures.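 Compound exposure: 48 hours, 5 concentrations, 96-well plates. The concentration for full growth arrest is given as TGI.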

This is an account of results in PubChem BioAssay (NCI).

Regarding `CC(C)N(C(=O)C12C3C4C1C1C2C3C41I)C(C)C` (stereo not drawn), the TGI with CAKI-1 renal, with DMS 114 small cell lung, with DMS 273 small cell lung, in the test with HCC-2998 colon, with LXFL 529 NSCLC and in the test on M19-MEL melanoma was over 100 µM throughout. For the same compound, the TGI with OVCAR-3 ovarian, in the test with RXF-631 renal, with SNB-78 CNS and in the test on XF 498 CNS was over 100 µM each time.

Regarding `COc1ccccc1-n1c(N)c2c(C)c(-c3ccccc3)[nH]c2nc1=S`, the TGI in the test on CAKI-1 renal, in the test with DLD-1 colon, in the test with DMS 114 small cell lung, in the test on DMS 273 small cell lung, in the test on HCC-2998 colon and with HOP-18 NSCLC was over 100 µM in each case. Further, the TGI in the test on KM20L2 colon, in the test on LXFL 529 NSCLC, in the test on M19-MEL melanoma, in the test with OVCAR-3 ovarian and with XF 498 CNS was over 100 µM throughout.

As for `O=C(Cc1ccc([N+](=O)[O-])c([N+](=O)[O-])c1CC(=O)C(=O)Nc1cc(Cl)ccc1Cl)C(=O)Nc1cc(Cl)ccc1Cl`, the TGI in the test on CAKI-1 renal was over 100 µM; in the test on DLD-1 colon, over 100 µM; with DMS 114 small cell lung it was over 100 µM; in the test with DMS 273 small cell lung, 87.3 µM; in the test with HCC-2998 colon it was over 100 µM; in the test on HOP-18 NSCLC, over 100 µM. Besides, the TGI with KM20L2 colon, in the test with LXFL 529 NSCLC, in the test with M19-MEL melanoma, in the test on OVCAR-3 ovarian and with SNB-78 CNS was over 100 µM throughout.

In the case of `CC/C(=N/O)c1ccc2[nH]c3c(C)cc([N+](=O)[O-])c(C)c3c2c1`, the TGI in the test with CAKI-1 renal is over 100 µM; with DLD-1 colon it was over 100 µM; in the test with DMS 114 small cell lung, over 100 µM; with DMS 273 small cell lung it was 60.8 µM; in the test on HCC-2998 colon, over 100 µM; in the test on HOP-18 NSCLC it was over 100 µM. Also, the TGI in the test with M19-MEL melanoma, in the test on OVCAR-3 ovarian, in the test on SNB-78 CNS and in the test with XF 498 CNS was over 100 µM in each case.

`Cc1cc(C)c2c(c1)N[S@@](=O)S2`: the TGI is 70.8 µM in the test on CAKI-1 renal; 59.2 µM in the test on DLD-1 colon; 38.7 µM in the test on DMS 114 small cell lung; 38.2 µM in the test on DMS 273 small cell lung; over 100 µM with HCC-2998 colon; 92.1 µM in the test with HOP-18 NSCLC. Moreover, the TGI in the test with KM20L2 colon was over 100 µM; in the test on LXFL 529 NSCLC, 29.4 µM; with M19-MEL melanoma, 46.7 µM; with OVCAR-3 ovarian, 39 µM; in the test with SNB-78 CNS, over 100 µM; in the test with XF 498 CNS, 50.1 µM.

As for `COc1cc(OC)c2c(=O)c3c([N+](=O)[O-])cccc3n(C)c2c1`, the TGI in the test on CAKI-1 renal, in the test on DLD-1 colon, with DMS 114 small cell lung, with DMS 273 small cell lung, in the test with HCC-2998 colon and in the test with HOP-18 NSCLC was over 100 µM each time. The TGI with KM20L2 colon, with LXFL 529 NSCLC, in the test with M19-MEL melanoma, in the test with OVCAR-3 ovarian and in the test with SNB-78 CNS was over 100 µM each time.

In the case of `C/C(=N/NC(=O)C[n+]1ccccc1)C(CN(CC(C)C)CC(C)C)C(=O)Nc1ccc(C)cc1C` (stereo not drawn), the TGI in the test on DLD-1 colon, in the test on DMS 114 small cell lung, with HCC-2998 colon, with KM20L2 colon, in the test on M19-MEL melanoma and in the test on RXF-631 renal was over 100 µM throughout.

As to `CN1N=C(c2ccccc2)C(C(c2ccccc2[N+](=O)[O-])C2C(=O)N(C)N=C2c2ccccc2)C1=O` (stereo not drawn), the TGI in the test on BT-549 breast, with CAKI-1 renal, in the test on HCC-2998 colon, in the test with MDA-MB-231 breast and in the test on OVCAR-3 ovarian was over 100 µM each time.

With `Clc1ccc(CCc2ccncn2)c(Cl)c1`, the TGI in the test on CAKI-1 renal, in the test with DLD-1 colon, in the test with DMS 114 small cell lung, in the test on DMS 273 small cell lung, in the test with HCC-2998 colon and in the test on HOP-18 NSCLC was over 100 µM each time. In addition, the TGI with KM20L2 colon, with LXFL 529 NSCLC, in the test on M19-MEL melanoma, in the test with OVCAR-3 ovarian, in the test on RXF-631 renal and in the test with SNB-78 CNS was over 100 µM throughout.

For `O=C(N/N=C(/c1nc2ccc([N+](=O)[O-])cc2[nH]c1=O)C(O)c1ccc([N+](=O)[O-])cc1)c1ccncc1` (stereo not drawn), the TGI with CAKI-1 renal, with DLD-1 colon, in the test on DMS 114 small cell lung, in the test with HCC-2998 colon, with HOP-18 NSCLC and in the test with LXFL 529 NSCLC was over 100 µM throughout. The TGI with M19-MEL melanoma, in the test with SNB-78 CNS and in the test with XF 498 CNS was over 100 µM throughout.

On to `COc1cc2c(cc1O)CN1CCC23C=C[C@@H](O)CC13` (stereo partly drawn), for which the TGI in the test with CAKI-1 renal, in the test on DLD-1 colon, in the test with DMS 114 small cell lung, with DMS 273 small cell lung, in the test with HCC-2998 colon and in the test with HOP-18 NSCLC was over 100 µM throughout. In addition, the TGI with KM20L2 colon, in the test on LXFL 529 NSCLC, with M19-MEL melanoma, in the test on OVCAR-3 ovarian and with SNB-78 CNS was over 100 µM in each case.

`[N-]=[N+]=Nc1ccc2c(c1)Sc1ccccc1N2CCCCN1CCN(Cc2ccc(C(=O)c3ccc(CSCC(N)C(=O)O)cc3)cc2)CC1` (stereo not drawn): the TGI in the test with BT-549 breast is 40.1 µM; in the test on CAKI-1 renal, 67 µM; in the test on HCC-2998 colon it was 59.2 µM; in the test on MDA-MB-231 breast it was 50.9 µM; in the test with OVCAR-3 ovarian it was over 100 µM.

As for `CCCCCCSCC/C(C)=N\OC`, the TGI with BT-549 breast, with CAKI-1 renal, in the test on HCC-2998 colon, with MDA-MB-231 breast and in the test with OVCAR-3 ovarian was over 100 µM each time.

Consider `OC(Cc1ccc2ccccc2n1)(C(F)(F)Cl)C(F)(F)Cl`, for which the TGI in the test with BT-549 breast, in the test with CAKI-1 renal, in the test with HCC-2998 colon, in the test on MDA-MB-231 breast and in the test with OVCAR-3 ovarian was over 10 µM each time.
